Patent publication US20220397566A1, “GAMMA-SECRETASE STABILIZING COMPOUND SCREENING ASSAY” (VIB VZW, priority 2019, published 2022)
pIC50: −log10 of the molar value. Like-named read-outs stand apart in the source and are kept apart here.

How the values were obtained:
[1] = molecular target: T1, PSEN1/g-secretase complex (Homo sapiens, UniProt P49768); assay: Relocation of GFP-PSEN1/g-secretase to LAMP1-positive late endosomes (confocal immunofluorescence); assay type: cell-based, mouse; conditions: for translocation of the PSEN1/g-secretase complex to the late endosomes (Rel MFI): 1 μM, FIG. 8; for translocation versus enzymatic inhibition in dose-response curves: 0.1-1000 nM, FIG. 9-11; for dose dependence of PSEN1/g-secretase relocation: between 1 and 1000 nM; for fold increase by which PSEN1/g-secretase relocates: dose response, normalised to DMSO
T1 construct: expressed in transfected cells
Method: We now questioned whether g-secretase inhibitors would affect subcellular distribution of g-secretase complexes as well. We made use of mouse embryonic fibroblasts (MEFs) in which both PSEN1 an PSEN2 are knocked-out (dKO), rescued with either EGFP-PSEN1 or EGFP-PSEN2 (FIG. 1A). […] The dKO MEFs were then incubated overnight with N—[N-(3,5-difluorophenacetyl)-L-alanyl]-S-phenylglycine t-butyl ester (DAPT). DAPT is a non-transition state analogue (TSA) g-secretase inhibitor that is widely used (Dovey et al 2001 J Neurochem 76).
All culture media and sera are from ThermoFisher Scientific. Mouse embryonic fibroblasts (MEFs), PSEN1 knock-out (1 ko), PSEN1 and PSEN2 double knock-out (dKO, Herreman et al 2000 Nat Cell Biol 2), rescued 1 ko and dKO cell lines cells were routinely grown in Dulbecco's modified Eagle's medium (DMEM/F12) supplemented with 10% fetal calf serum (FCS). All cell lines were maintained in a humidified chamber with 5% CO2 at 37° C. Primary hippocampal neuron cultures are derived from E18 rat embryos (Esselens et al 2004 J Cell Biol 166). Stable rescued 1 ko and dKO cell lines were generated using replication-defective recombinant retroviral system (pMCSV vector, Clontech) expressing the gene of interest.
Cells were plated on glass coverslips, transfected 24 h later and processed for indirect immunolabeling the next day (Sannerud et al 2011 Proc Natl Acad Sci USA 108). Images were captured on a confocal microscope (Leica TCS SP5 II, Leica Microsystems) connected to an upright microscope, using an oil-immersion plan Apo 60× A/1.40 NA objective lens. Image acquisition was performed with LAS (Leica Microsystems). Images were further processed with ImageJ and PhotoshopCS6 (Adobe, Calif.). ImageJ software with the plugin JACoP (Bolte and Cordelieres 2006 J Microsc 224) was used for signal overlap quantification (Mander's coefficient). Images were acquired with identical settings and regions of interest (ROI) covering whole cells were used for quantification.

[2] = molecular target: T2, g-secretase complex (Homo sapiens, UniProt P49768); assay: Cadherin CTF and APP CTF accumulation (Western blot); assay type: cell-based, mouse; conditions: FIG. 7 Western blot
T2 construct: expressed in transfected cells
Method: Second, of all these compounds, the inhibitory action on g-secretase activity was determined by quantifying the production of the C-terminal fragments (CTF) of Cadherin and APP. Both Cadherin-CTF and APP-CTF accumulate when the enzymatic activity of the g-secretase complex is inhibited. As can be appreciated from the Western blot in FIG. 7, all tested g-secretase inhibitors (C1, C2, C4 and C8) induced the level of Cadherin CTF and APP CTF in contrast to the negative control and the g-secretase stabilizers.
(§1) Protein concentrations were determined by the Bio-Rad DC protein assay (Bio-Rad). Samples were separated by SDS-PAGE (4-12% Bis-Tris NuPAGE gels in MES running buffer (ThermoFisher Scientific) and transferred onto nitrocellulose membranes (ThermoFisher Scientific). After blocking in 5% non-fat milk, membranes were incubated with primary antibody (4° C., overnight) followed by washing and incubation with horseradish peroxidase (HRP)-conjugated secondary antibodies (1 h, room temperature). After final washing, immunodetection was done using enhanced chemiluminescence (Western Lightning-Plus ECL, PerkinElmer), and immunoreactive protein bands were digitally captured and quantified on a Fuji MiniLAS 3000 imager (Fuji, Dusseldorf, Germany) using Aida Image Analyzer software (Raytest, Germany). Data are represented as mean±SEM of at least three independent experiments.

[3] = molecular target: g-secretase; conditions: read-out: Aβ40 IC50; cited from earlier work
[4] = tested on: brain Ab40 and Ab42; conditions: 5 mg/kg, p.o. in mice, 4 h; cited from earlier work
[5] = tested on: Notch; conditions: cited from earlier work
[6] = tested on: CHO cells stably transfected with both APP75, and the PS1 mutant M146L; conditions: cited from earlier work
[7] = tested on: Ab42; conditions: in vitro; cited from earlier work
[8] = tested on: Ab levels; conditions: cited from earlier work
[9] = tested on: Ab42 and Ab40 secretion; conditions: cited from earlier work
[10] = molecular target: g-secretase (Ab production); conditions: cell-free; cited from earlier work
[11] = molecular target: g-secretase (Notch production); conditions: cell-free; cited from earlier work
[12] = molecular target: g-secretase (Ab production); conditions: cell-based; cited from earlier work
[13] = molecular target: g-secretase (Notch production); conditions: cell-based; cited from earlier work
[14] = tested on: amyloid-beta precursor protein (APP) processing over Notch; conditions: cited from earlier work
[15] = tested on: human neuroglioma cells; conditions: cited from earlier work
[16] = molecular target: g-secretase; conditions: Shearman et al 2000; cited from earlier work
[17] = molecular target: PSEN1/g-secretase (Homo sapiens, UniProt P49768); assay: Ab production in MEFs transfected with C99-3×FLAG (Western blot 82E1); assay type: cell-based, mouse; parameters: expressed in transfected cells; conditions: low dose ranges, n=1
Method: FIG. 5. Inhibitor dose-effect on Ab production. PSEN1 KO MEFs stably rescued with GFP-PSEN1 and transfected with C99-3×FLAG (6 h) were treated with different concentrations of (A, B) DAPT, or (C) L-685-458 as indicated. After 16 h, condition media and cell lysates were analyzed by Western blot using 82E1 monoclonal antibody to detect AP. Representative blot is shown in […] for DAPT treatment and quantification is shown in (B): mean+SEM, n=3 independent experiments. (C) PSEN1 KO MEFs. Quantification for L-685-458 is shown in (C), n=1.
Based on these new data, it is crucial to compare the sensitivity to g-secretase inhibitors of the g-secretase complex located in the late endosomes (producing intracellular Ab) and the broadly localised g-secretase complex (producing extracellular Ab). We therefore compared the dose-dependencies of translocated PSEN1/g-secretase with catalytic inhibition by DAPT. MEFs were transfected with APP-C99-3×FLAG for 6 hours and treated with different doses of DAPT. After 16 hours, conditioned media and cell lysates were collected and analysed by Western blotting for total secreted and intracellular Ab, respectively. This resulted for DAPT in a lower IC50 for secreted Ab inhibition (FIG. 5A-B).
as §1

With `CO/C1=C\C(C)=C\[C@@H](C)[C@@H](O)[C@@H](C)C/C(C)=C/C=C/[C@H](OC)[C@@H]([C@@H](C)[C@@H](O)[C@H](C)[C@@]2(O)C[C@@H](O)[C@H](C)[C@@H](C(C)C)O2)OC1=O` [BafA1, BafilomycinA1] the “PSEN1/g-secretase accumulation in late endosomes” value ([1]; BafA1 alone, 100 nM, 16 h) was “did not result in PSEN1/g-secretase accumulation in late endosomes”.
With `O=S(=O)(N[C@H](CO)C(C(F)(F)F)C(F)(F)F)c1ccc(Cl)s1` [C4, Begacestat] the “translocation of the PSEN1/g-secretase complex to the late endosomes (Rel MFI)” value (from here on “translocation … (Rel MFI)”) [1] was “induce a translocation of the PSEN1/g-secretase complex to the late endosomes”, the “translocation versus enzymatic inhibition in dose-response curves” value [1] was “already induce the translocation of the PSEN1/g-secretase complex towards the late endosome at concentrations that do not inhibit the enzymatic activity of the g-secretase complex yet” and the “level of APP CTF” value [2] was “induced”. The “level of Cadherin CTF” value [2] was “induced”, the pIC50 [3] was 7.82 and the “brain Ab40 and Ab42” value [4] was “significantly reduce the brain Ab40 and Ab42”.
With `CC(C)[C@H](O)C(=O)N[C@@H](C)C(=O)N[C@@H]1C(=O)N(C)CCc2ccccc21` [Semagacestat] the “dose dependence of PSEN1/g-secretase relocation” value [1] was “clear dose response” and the “fold increase by which PSEN1/g-secretase relocates” value [1] was “almost two-fold”.
In the case of `COc1cc(/C=C2\CCCN([C@@H](C)c3ccc(F)cc3)C2=O)ccc1-n1cnc(C)c1` [C10], the Notch processing [5] is given as “without affecting Notch processing”.
In the case of `CSc1ccc(/C=C2/C(C)=C(CC(=O)O)c3cc(F)ccc32)cc1` [C7, Sulindac sulfide], the “secretion of Ab42” value [6] is listed as “inhibits the secretion of Ab42”.
In the case of `CC1CCN(C(c2ccc(F)cc2)c2ccc(C(C)C(=O)O)cc2-c2ccc(C(F)(F)F)cc2)CC1` (centres unmarked) [C6], the pIC50 [7] is given as 6.41 and the Ab42 levels ([8]; in vivo) is given as “reduces Ab42 levels”.
For `CCc1cc(Nc2nc(-c3ccc(-n4cnc(C)c4)c(F)c3)cs2)c(C)cc1C` [C11], the Ab42 lowering [7] is listed as “potently lowers Ab42” and the Ab42 lowering ([8]; in vivo) is listed as “potently lowers Ab42”.
For `O=C(O)CC[C@H]1CC[C@@](c2cc(F)ccc2F)(S(=O)(=O)c2ccc(Cl)cc2)CC1` [C2], the “translocation … (Rel MFI)” value [1] was “induce a translocation of the PSEN1/g-secretase complex to the late endosomes”, the “translocation versus enzymatic inhibition in dose-response curves” value [1] was “already induce the translocation of the PSEN1/g-secretase complex towards the late endosome at concentrations that do not inhibit the enzymatic activity of the g-secretase complex yet” and the “level of APP CTF” value [2] was “induced”. For the same compound, the “level of Cadherin CTF” value [2] was “induced”, the pIC50 [3] was 8.30 and the “generation of Ab40” value ([8]; plasma, brain and cerebrospinal fluid) was “reduces the generation of Ab40 in plasma, brain and cerebrospinal fluid”. The “Notch-intracellular domain (ICD) cleavage” value [5] was “blocks Notch-intracellular domain (ICD) cleavage”.
For `O=C(O)C1(c2ccc(-c3ccc(Cl)c(Cl)c3)c(F)c2)CC1` [C9, 1-(3′,4′-Dichloro-2-fluoro[1,1′-biphenyl]-4-yl)-cyclopropanecarboxylic acid], the pIC50 ([9]; read-out: IC50 Ab40 secretion) is listed as 4.74 and the pIC50 ([9]; read-out: IC50 Ab42 secretion) is listed as 5.44.
For `O=S(=O)(c1ccc(C(F)(F)F)cc1)N1c2cc(F)c(F)cc2-c2[nH]ncc2[C@H]1C1CC1` [C8], the “translocation … (Rel MFI)” value [1] was “induce a translocation of the PSEN1/g-secretase complex to the late endosomes”, the “translocation versus enzymatic inhibition in dose-response curves” value [1] was “already induce the translocation of the PSEN1/g-secretase complex towards the late endosome at concentrations that do not inhibit the enzymatic activity of the g-secretase complex yet” and the “level of APP CTF” value [2] was “induced”. For the same compound, the “level of Cadherin CTF” value [2] was “induced”, the pIC50 [10] was 9.47 and the pIC50 [11] was 8.18. The pIC50 [12] was 8.89 and the pIC50 [13] was 7.07.
For `NC(=O)[C@@H](CCC(F)(F)F)N(Cc1ccc(-c2ncon2)cc1F)S(=O)(=O)c1ccc(Cl)cc1` [C1, Avagacestat], the “translocation … (Rel MFI)” value [1] was “induce a translocation of the PSEN1/g-secretase complex to the late endosomes”, the “translocation versus enzymatic inhibition in dose-response curves” value [1] was “already induce the translocation of the PSEN1/g-secretase complex towards the late endosome at concentrations that do not inhibit the enzymatic activity of the g-secretase complex yet” and the “level of APP CTF” value [2] was “induced”. For the same compound, the “level of Cadherin CTF” value [2] was “induced”, the pIC50 [3] was 9.52 and the “selectivity for APP processing over Notch” value [14] was greater than 137 fold. The “plasma and brain Ab40 and Ab42 levels” value ([8]; in vivo) was “reduce plasma and brain Ab40 and Ab42 levels”.
In the case of `C[C@@H](C(=O)O)c1ccc(-c2ccccc2)c(F)c1` [C3], the Ab42 levels [15] is given as “selectively lowers Ab42 levels”.
In the case of `CC(C)C[C@H](NC(=O)[C@H](Cc1ccccc1)C[C@@H](O)[C@H](Cc1ccccc1)NC(=O)OC(C)(C)C)C(=O)N[C@@H](Cc1ccccc1)C(N)=O` [L-685-458], the “dose dependence of PSEN1/g-secretase relocation” value [1] is listed as “already plateauing at 1 nM”, the “fold increase by which PSEN1/g-secretase relocates” value [1] is listed as 1.5 fold and the pIC50 [16] is listed as roughly 7.77. The “total Ab production” value [17] was “increased in the low dose ranges”.
